Experimental findings from patent US10688061B2, “Formation of delivery agents targeted to degraded elastic fibers” (priority 2012, dated 2020) are described below.

The series concerns Rat aortic vascular smooth muscle cells. The following applies: positive control (FIG. 22).

Molecules are shown by their SMILES. Bounds are passed on as bounds.

Experimental: Cells were seeded at 10,000 cells/cm^2. At 70% confluency, cells were incubated with nanoparticles for 4 hours following which cell viability was determined using a LIVE/DEAD Cell Viability assay (Molecular Probes, Grand Island, N.Y.). Cells fluorescing green were considered alive while cells fluorescing red were considered dead. Additionally, proliferation of cells was estimated using the MTT (3-(4,5-Dimethyl-2-thiazolyl)-2,5-diphenyl-2H-tetrazolium bromide) assay. Briefly, 5 mg of MTT (Sigma Aldrich, St. Louis, Mo.) was dissolved in 10 ml of serum-free media and added to cells. After 4 hours, media was carefully aspirated and the insoluble formazan dye was collected with dimethyl sulfoxide (DMSO) (Sigma Aldrich, St, Louis, Mo.). Absorbance was read at 560 nm and normalized to control (no treatment) readings.

`CCO` [70% ethanol, ethanol]: the Cell death is > 95%.
